This is an account of results in publication PMC11448502, “Cryo-EM structures of the human P2X1 receptor reveal subtype-specific architecture and antagonism by supramolecular ligand-binding” (Nature Communications, 2024).

Values joined by “and” are separate entries in the source; they are usually repeats but may differ in a detail not shown here. Equal entries are not always repeated. “Also recorded” adds a separate entry of the source. Where two headings read alike, the source gives them in different places. A value given as a limit tells only on which side of the number the result lay.

For assay [1], the system named is platelets. Particulars: ex vivo; cited from earlier work.
Assay [2] concerns thrombosis. Particulars: in vivo; cited from earlier work.
Assay [3] deals with T1, hP2X1 D170A (Homo sapiens, UniProt P51575, D170A).
T1 construct: hP2X1 mRNA that was made from linearized full-length wild-type or mutant pcDNA 3.1x; expressed in transfected cells; host or cells: Xenopus laevis oocytes (mRNA injection)
T1 sequence (P51575 1-399 D170A): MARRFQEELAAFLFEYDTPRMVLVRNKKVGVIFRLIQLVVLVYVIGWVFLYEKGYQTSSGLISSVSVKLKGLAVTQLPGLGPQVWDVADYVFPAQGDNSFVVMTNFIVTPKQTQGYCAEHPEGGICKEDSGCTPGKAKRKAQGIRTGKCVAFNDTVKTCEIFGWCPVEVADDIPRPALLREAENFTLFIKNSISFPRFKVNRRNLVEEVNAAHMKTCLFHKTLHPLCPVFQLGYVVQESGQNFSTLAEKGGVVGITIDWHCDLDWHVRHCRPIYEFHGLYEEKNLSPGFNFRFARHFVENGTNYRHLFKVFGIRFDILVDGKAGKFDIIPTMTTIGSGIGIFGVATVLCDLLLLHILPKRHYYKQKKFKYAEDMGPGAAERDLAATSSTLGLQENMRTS
Kind of assay: ATP dose response (EC50), TEVC in oocytes. Format: cell-based. Particulars: for Normalized Current: hP2X1 D170A. How it is done:
Oocytes were purchased defolliculated from Ecocyte Bioscience in Barth’s Solution (88 mM NaCl, 1 mM KCl, 0.82 mM MgSO4, 0.33 mM Ca(NO3)2, 0.41 mM CaCl2, 2.4 mM NaHCO3, 5 mM Tris-HCl) supplemented with penicillin (100 U/mL) and streptomycin (100 µg/mL). Xenopus laevis oocytes were then injected with 50 nL of 100 ng/μL hP2X1 mRNA that was made from linearized full-length wild-type or mutant pcDNA 3.1x according to the protocol provided in the mMessage mMachine kit (Invitrogen). Injected oocytes were allowed to express for ~20 hours at 18 °C before recording was performed.
Data acquisition was performed using the Oocyte Clamp OC-725C amplifier and pClamp 8.2 software. Buffers were applied using a gravity fed RSC-200 Rapid Solution Changer that flows at ~5 mL/min. All experiments use Sutter filamented glass 10 cm in length with an inner diameter of 0.69 mm and an outer diameter of 1.2 mm to impale oocytes and clamp the holding voltage at −60 mV. Experiments were recorded in buffer containing 10 mM HEPES (pH 7.4), 140 mM NaCl, 5 mM KCl, 2 mM CaCl2, 2 mM MgCl2, and 10 mM glucose.
Excitatory responses to a dilution series of ATP between 6.4 nM and 10 mM were examined across the different mutants. Each evoked response was normalized to an initial ATP-induced current evoked by the following concentrations: 500 µM ATP for R292A, 2 mM ATP for K309A, and 100 µM ATP for the remaining mutants and wild-type receptor. The data was fit in Prism 9 using the nonlinear regression named “EC50, x is concentration” to afford EC50 values. This value was then averaged amongst each singular condition and reported as an average plus or minus the standard deviation.

Assay [4] deals with P2X7 receptor. Further details: method as in PMID 33125712, PMID 18657557. The note with it: read-out: apparent affinity for ATP, cited from earlier work.
Assay [5] concerns P2X3. On the set-up: method as in doi: 10.1111/bph.15299. Particulars: reviewer comment, ref doi: 10.1111/bph.15299, read-out: EC50 of ATP; cited from earlier work.

As for `O=C(Nc1cc(C(=O)Nc2ccc(S(=O)(=O)O)cc2S(=O)(=O)O)cc(C(=O)Nc2ccc(S(=O)(=O)O)cc2S(=O)(=O)O)c1)Nc1cc(C(=O)Nc2ccc(S(=O)(=O)O)cc2S(=O)(=O)O)cc(C(=O)Nc2ccc(S(=O)(=O)O)cc2S(=O)(=O)O)c1` [NF449, 4,4’,4”,4’’’-(carbonylbis(imino-5,1,3-benzenetriylbis(carbonylimino)))tetrakis-benzene-1,3-disulfonic acid], the “effect on platelet activation” value in assay [1] was “inhibitory effect”. Moreover, in assay [2], the effect on thrombosis entry is “inhibitory effect”.
`Nc1ncnc2c1ncn2[C@@H]1O[C@H](COP(=O)(O)OP(=O)(O)OP(=O)(O)O)[C@@H](O)[C@H]1O` [ATP]: the “apparent affinity (EC50) of ATP, effect of mutation” value in assay [3] (hP2X1 D170A vs wild-type, TEVC) is “do not appear to significantly change; also recorded: no major effect; also recorded: does not significantly impact”. The “Normalized Current” value was 0.9915 and 0.8795 and 0.8416 in assay [3] ([ATP] 1.000E-04 M); 0.8809 and 0.7486 and 0.74 in assay [3] ([ATP] 2.000E-05 M); 0.000000 in assay [3] ([ATP] 3.200E-08 M); 0.723 and 0.5398 and 0.4488 in assay [3] ([ATP] 4.000E-06 M); 1.029 and 1.009 and 0.9611 in assay [3] ([ATP] 5.000E-04 M). Besides, the EC50 is above 100 µM in assay [4], above 1000 µM in assay [4] (under certain conditions) and 0.5 to 1 µM in assay [5].
